Values quoted from earlier work as cited in US7884090B2, “Compositions and methods for the treatment of arthritis” (priority 1999, dated 2011).

Experiments:
[1] = tested on: pseudomonas aeruginosa, methicillin-resistant strains of Staph. aureus and Proteus
[2] = tested on: Staph haemolyticus, Staph hominis, Acinetobacter Iwoffi and further listed species up to Yersinia enterocolitica; settings: in vitro

Structure (SMILES)	Strains against which active [1]	Strains against which effective [2]
CCN[C@@H]1C[C@H](N)[C@@H](O[C@H]2OC(CN)=CC[C@H]2N)[C@H](O)[C@H]1O[C@H]1OC[C@](C)(O)[C@H](NC)[C@H]1O [netilmicin]	85%	
O=C(O)c1cn(C2CC2)c2cc(N3CCNCC3)c(F)cc2c1=O [cipro, ciprofloxacin]		90%
